These results are taken from patent US9328106B2, “Cyclic ether pyrazol-4-yl-heterocyclyl-carboxamide compounds and methods of use” (Genentech, Inc., priority 2012, dated 2016).

For this test, the target named is PIM1 (Homo sapiens (Human), UniProt P11309). In words: biochemical. The conditions noted are these: 20 pM PIM1, 1 μM FAM-peptide, 10 μM ATP, 90 minutes at room temperature; read-out: PIM1 LC3K (KI). Format: biochemical.

pKi: −log10 of the molar value.

PIM1, sequence (P11309 whole entry): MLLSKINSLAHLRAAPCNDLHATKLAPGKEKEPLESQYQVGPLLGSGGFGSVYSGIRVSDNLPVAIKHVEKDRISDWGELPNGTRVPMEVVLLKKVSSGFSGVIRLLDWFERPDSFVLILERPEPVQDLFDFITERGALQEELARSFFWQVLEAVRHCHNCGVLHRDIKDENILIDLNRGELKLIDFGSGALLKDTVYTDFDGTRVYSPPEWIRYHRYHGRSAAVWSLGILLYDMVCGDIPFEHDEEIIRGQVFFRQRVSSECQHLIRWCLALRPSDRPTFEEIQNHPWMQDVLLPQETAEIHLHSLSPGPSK

As a reminder, the pKi is −log10 of the Ki, conventionally taken in molar units. Take `Cn1ncc(NC(=O)c2nc(-c3c(F)cccc3C(F)(F)F)sc2N)c1[C@@H]1CC[C@@H](N)[C@@H](F)CO1` [Example 278, 5-amino-N-(5-((2S,5R,6R)-5-amino-6-fluorooxepan-2-yl)-1-methyl-1H-pyrazol-4-yl)-2-(2-fluoro-6-(trifluoromethyl)phenyl)thiazole-4-carboxamide]: the negative logarithm of the Ki (pKi) is 10.21.

Regarding `Cn1ncc(NC(=O)c2csc(-c3ccccc3F)n2)c1[C@@H]1CC[C@@H](N)[C@@H](F)CO1` [Example 318, N-(5-((2S,5R,6R)-5-amino-6-fluorooxepan-2-yl)-1-methyl-1H-pyrazol-4-yl)-2-(2-fluorophenyl)thiazole-4-carboxamide], the pKi is 10.01.

Take `CC(O)c1cc(F)c(-c2nc(C(=O)Nc3cnn(C)c3[C@@H]3CC[C@@H](N)[C@H](F)CO3)cs2)c(F)c1` (stereo partly drawn) [Example 294, N-(5-((2S,5R,6S)-5-amino-6-fluorooxepan-2-yl)-1-methyl-1H-pyrazol-4-yl)-2-(2,6-difluoro-4-(1-hydroxyethyl)phenyl)thiazole-4-carboxamide]: the pKi is 10.54.

As to `Cc1cccnc1-c1nc(C(=O)Nc2cnn(C)c2[C@@H]2CC[C@@H](N)[C@H](F)CO2)cs1` [Example 231, N-(5-((2S,5R,6S)-5-amino-6-fluorooxepan-2-yl)-1-methyl-1H-pyrazol-4-yl)-2-(3-methylpyridin-2-yl)thiazole-4-carboxamide], the pKi was 10.35.

With `CC(=O)Nc1ccc(-c2nc(C(=O)Nc3cnn(C)c3[C@@H]3CC[C@@H](N)[C@H](F)CO3)cs2)cn1` [Example 386, 2-(6-acetamido-3-pyridyl)-N-[5-[(2S,5R,6S)-5-amino-6-fluoro-oxepan-2-yl]-1-methyl-pyrazol-4-yl]thiazole-4-carboxamide], the pKi is 9.41.

Regarding `Cn1ncc(NC(=O)c2nc(-c3cccc(F)c3Cl)sc2N)c1[C@@H]1CC[C@@H](N)[C@H](F)CO1` [Example 337, 5-amino-N-(5-((2S,5R,6S)-5-amino-6-fluorooxepan-2-yl)-1-methyl-1H-pyrazol-4-yl)-2-(2-chloro-3-fluorophenyl)thiazole-4-carboxamide], the pKi is 10.82.

In the case of `Cn1ncc(NC(=O)c2ccc(F)c(-c3c(F)cc(C4(O)CC4)cc3F)n2)c1[C@@H]1CC[C@@H](N)[C@H](F)CO1` [Example 204, N-(5-((2S,5R,6S)-5-amino-6-fluorooxepan-2-yl)-1-methyl-1H-pyrazol-4-yl)-6-(2,6-difluoro-4-(1-hydroxycyclopropyl)phenyl)-5-fluoropicolinamide], the pKi is 12.00.

With `Cn1ncc(NC(=O)c2ccc(F)c(-c3c(F)cc(C4(O)CCC4)cc3F)n2)c1[C@@H]1CC[C@@H](N)[C@H](F)CO1` [Example 198, N-(5-((2S,5R,6S)-5-amino-6-fluorooxepan-2-yl)-1-methyl-1H-pyrazol-4-yl)-6-(2,6-difluoro-4-(1-hydroxycyclobutyl)phenyl)-5-fluoropicolinamide], the negative logarithm of the Ki (pKi) was 10.68.

Regarding `Cn1ncc(NC(=O)c2nc(C3=CCCC3)sc2N)c1[C@@H]1CC[C@@H](N)[C@H](F)CO1` [Example 333, 5-amino-N-(5-((2S,5R,6S)-5-amino-6-fluorooxepan-2-yl)-1-methyl-1H-pyrazol-4-yl)-2-(cyclopent-1-en-1-yl)thiazole-4-carboxamide], the negative-log Ki (pKi) was 10.52.

For `CC[C@@H]1C[C@H](N)CC[C@H](c2c(NC(=O)c3nc(-c4c(F)cccc4F)sc3N)cnn2C)O1` [Example 125, 5-amino-N-(5-((2R,7R)-5-amino-7-ethyloxepan-2-yl)-1-methyl-1H-pyrazol-4-yl)-2-(2,6-difluorophenyl)thiazole-4-carboxamide], the negative-log Ki (pKi) was 8.46.

On to `Cn1ncc(NC(=O)c2ccc(F)c(-c3c(F)cc(OCCO)cc3F)n2)c1[C@@H]1CC[C@@H](N)[C@H](F)CO1` [Example 209, N-(5-((2S,5R,6S)-5-Amino-6-fluorooxepan-2-yl)-1-methyl-1H-pyrazol-4-yl)-6-(2,6-difluoro-4-(2-hydroxyethoxy)phenyl)-5-fluoropicolinamide], for which the pKi is 10.80.
